ChEMBL document CHEMBL3853280, “Unexpected Metabolic Versatility in a Combined Fungal Fomannoxin/Vibralactone Biosynthesis” (2016)
Converted amounts (≈) assume the structure as drawn.

Tests used:
Type in all cases: functional
Aspergillus fumigatus = test: Antifungal activity against Aspergillus fumigatus by broth dilution assay
[1] = Antifungal activity against Penicillium notatum by broth dilution assay; settings: Penicillium chrysogenum
Trichophyton benhamiae = test: Antifungal activity against Arthroderma benhamiae by broth dilution assay

MIC (Aspergillus fumigatus) | MIC [1] | MIC (Trichophyton benhamiae) | SMILES
> 100 µg/mL | 25 µg/mL (≈ 120 µM) | 50 µg/mL (≈ 240 µM) | CC(C)=CC[C@@]12C=C(CO)C[C@@H]1OC2=O
50 µg/mL (≈ 212 µM) | 25 µg/mL (≈ 106 µM) | 6.25 µg/mL (≈ 26.5 µM) | COC(=O)c1ccc(OC=C(C)C)c(CO)c1
> 100 µg/mL | 25 µg/mL (≈ 112 µM) | > 100 µg/mL | CC1=CC=C(CC2CCOC2=O)C(=O)OC1 (centres undefined)
50 µg/mL (≈ 213 µM) | 25 µg/mL (≈ 107 µM) | 6.25 µg/mL (≈ 26.7 µM) | C=C(C)COc1ccc(C(=O)OC)cc1C=O
> 100 µg/mL | 25 µg/mL (≈ 121 µM) | 100 µg/mL (≈ 485 µM) | COC(=O)c1ccc(OC=C(C)C)cc1
> 100 µg/mL | 25 µg/mL (≈ 140 µM) | 12.5 µg/mL (≈ 70.1 µM) | CC(C)=C/C=C/C=C1\CCOC1=O
> 100 µg/mL | 25 µg/mL (≈ 99.9 µM) | 50 µg/mL (≈ 200 µM) | CC(=O)OCC1=C[C@@]2(CC=C(C)C)C(=O)O[C@H]2C1
> 100 µg/mL | 25 µg/mL (≈ 106 µM) | 25 µg/mL (≈ 106 µM) | C=C(C)COc1ccc(C(=O)OC)cc1CO
